The source of these data is publication PMC10295463, “Computational Characterization of the Binding Properties of the HIV1-Neutralizing Antibody PG16 and Design of PG16-Derived CDRH3 Peptides” (Biology, 2023).

This assay concerns the target T1, gp120 HxBc2 (Human immunodeficiency virus type 1 group M subtype B, UniProt P04578).
T1 construct: incubated for 3 h with gp120 HxBc2 (ImmuneTech); purchased ImmuneTech
The experiment in a line: Peptide binding assay (ELISA): gp120 binding to immobilized biotinylated peptide. The following applies: same ELISA, gp120 up to 16.6 nM. Details: species or system HIV-1. The protocol:
High-binding Corning Costar microtiter half-area plates were coated with Neutravidin (Thermo Scientific, Dreieich, Germany, 4.0 μ g /mL) in 0.1 M carbonate buffer pH 9.6, overnight at 4 ^∘C . After the blocking of unspecific binding with 1% BSA in 0.1 M phosphate buffer pH 7.2, for 1 h , the neutravidin-coated plate was incubated with 2 μ m biotinylated peptide for 2 h . Plates were then incubated for 3 h with gp120 HxBc2 (ImmuneTech, New York, NY, USA) at three-fold serial dilutions, starting at 16.6 nM. Bound gp120 was detected with sheep anti-gp120 (Aalto Bio Reagents, Dublin, Ireland) 0.1 μ g /mL) for 1 h , followed by rabbit anti-sheep-HRP conjugate (Jackson Immuno Research, Ely, UK, 0.1 μ g /mL) for 1 h . All peptides and proteins were diluted in 0.1 M phosphate buffer pH 7.2, containing 0.01% Tween. Plates were developed with OPD ( 1 m g /mL) in the presence of 0.03% H2O2 for approximately 10 min in the dark. After the reaction was stopped with 2 M H2SO4, absorbance was read at 492 n m . The absorbance of the blanks (samples without peptide) was subtracted. All data points present means of duplicates. Curves were fitted and EC50 values calculated using the program Origin 2021 (OriginLab Corporation, Northampton, MA, USA).
(An ELISA detects its analyte on a solid surface through an enzyme-linked reagent.)

Bridge positions count the residues as written; N and C are the ends. Square brackets hold non-standard residues; d marks the D form. Peptide text beside a SMILES is read from it. * marks the point of attachment. Biotin = O=C1N[C@H]2[C@H](CS[C@H]2CCCCC(=O)*)N1; pY = N[C@@H](Cc1ccc(OP(=O)(O)O)cc1)C(=O)O; AEEA = NCCOCCOCC(=O)O

Take `CC[C@H](C)[C@@H]1NC(=O)[C@@H](NC(=O)CNC(=O)COCCOCCNC(=O)CCCC[C@@H]2SC[C@@H]3NC(=O)N[C@@H]32)CSSC[C@@H](C(=O)N[C@@H](Cc2ccc(O)cc2)C(=O)N[C@@H](Cc2ccc(OP(=O)(O)O)cc2)C(=O)N[C@@H](CC(=O)O)C(=O)N[C@@H](Cc2ccccc2)C(=O)N[C@@H](CC(N)=O)C(=O)N[C@@H](CC(=O)O)C(=O)NCC(N)=O)NC(=O)[C@H](C(C)C)NC(=O)[C@H](CC(=O)O)NC(=O)[C@H](CC(=O)O)NC(=O)[C@H](Cc2c[nH]cn2)NC(=O)[C@H](Cc2c[nH]c3ccccc23)NC1=O` [LW40.2] ({Biotin-AEEA}-GCIWHDDVCY[pY]DFNDG-NH2; disulfide 2-9): the “binding of gp120 to the peptide (in words)” value is on record as “no detectable binding at all”.
